The source of these data is patent US4851385A, “LHRH antagonist analogs having low histamine-release activity” (Indiana University Foundation, priority 1987, dated 1989).

Where a SMILES comes first, the peptide text is derived from it. [ ]: non-standard residue; d: D form. dPhe(4-Cl) = N[C@H](Cc1ccc(Cl)cc1)C(=O)O; d2Nal = N[C@H](Cc1ccc2ccccc2c1)C(=O)O

In one series the test system is histamine release. The settings on record: cited from earlier work.
In the next series the test system is rat. As to the kind of experiment: Standard antiovulatory assay (Corbin and Beattie). The class given is in vivo. As for the experimental part:
Antiovulatory activity was determined by standard antiovulatory assays conducted by the method described by Corbin and Beattie, Endocrine Research Communications 2 1 (1975) and results are given in Table I.

Series [1] concerns rat mast cells. As to the kind of experiment: In vitro histamine releasing activity assay (rat peritoneal mast cell suspension, fluorometric histamine assay). The note with it: mean effective dose from dose response curves, 15 min at 37° C., duplicate or triplicate, cells from at least three rats. The format is cell-based. On the procedure:
The in vitro histamine release activity of the analogs was assayed by the method described below and the results are given in Table I.
A suspension of rat mast cells was added to increasing concentrations of peptide and the mixture was incubated for a few minutes followed by centrifugation to collect the histamine in the supernatant. A PIPES (piperazine-N,N'-bis[2-ethanesulfonic acid]) medium buffered at pH 7.4 containing NaCl119 mM, KCl5 mM, PIPES 25mM, NaOH 40 mM, glucose 5.6 mM, CaCl2 1 mM and 0.1% bovine serum albumin was used. This was designated as PIPES AC. Peptides were dissolved in double distilled H2 O at a concentration of 2 mg ml and stored at -20° C. They were thawed just prior to testing, duluted in PIPES AC and prewarmed for 5 min. at 37° C. Peptides studied were stable to heating at 56° C. for 2 hr., and to freezing and thawing.
Peritoneal cells were collected from male Sprague-Dawley rats weighing 200 to 250 gm and purchased from Harlan (Madison, Wis.). After euthanasia by CO2, the peritoneal cavity was washed with 50 ml PIPES AC medium containing 20 units of heparin. Following centrifugation at 200×g for 8 min. at 4° C., cells were washed again and finally resuspended to a concentration of 8 to 24×10^5 total leukocytes/ml in PIPES AC. This suspension contained approximately 5-10% mast cells. […]

The test system of series [2] is rat mast cells. The note with it: mast cell supernatants assayed concomitantly for lactic dehydrogenase. The source says:
The ED50 values of Table I (mean effective dose from dose response curves), are expressed in μg/ml. […] For routine testing, mast cells were not purified.

“[Ac-2-D-Nal^1, α-Me-4-C1-D-Phe^2, D-Trp^3, Arg^5, D-Tyr^6, D-Ala^10 ] LHRH”: in the series with histamine release (Roeske et al. 1985), the “times less potent in histamine releasing activity than the synthetic D-Arg6 antagonists” value was 20-40 times.

Turning to “[Ac-D-2-Nal^1, D-4-C1-Phe^2, D-Trp^3, D-N^ε -Heptyl Lys, Nε-Heptyl Lys^8, D-Ala^10 ]LHRH”, the “antiovulatory activity (in words)” value with rat (N-alkylation of Lys 6 and 8 with a 7-carbon moiety) was “lowers antiovulatory activity markedly”.

For the molecule `CC(=O)N[C@H](Cc1ccc2ccccc2c1)C(=O)N[C@H](Cc1ccc(Cl)cc1)C(=O)N[C@H](Cc1c[nH]c2ccccc12)C(=O)N[C@@H](CO)C(=O)N[C@@H](Cc1ccc(O)cc1)C(=O)N[C@H](CCCNC(=N)N)C(=O)N[C@@H](CC(C)C)C(=O)N[C@@H](CCCNC(=N)N)C(=O)N1CCC[C@H]1C(=O)N[C@H](C)C(N)=O` [Compound 1, [N-Ac-D-Nal(2)^1, D-p-Cl-Phe^2, D-Trp^3, D-Arg^6, D-Ala^10] LHRH] (Ac-[d2Nal][dPhe(4-Cl)][dW]SY[dR]LRP[dA]-NH2), the “histamine releasing activity (in words)” value in the series with histamine release (Karten and Rivier 1986) is “potent histamine releasing anlog”.

In the case of “[N--Ac--D-Nal(2)^1,D-C--α-Me--pCl--Phe^2,D-Pal(3)^3,D-Arg^6,hArg(Et2)^8,D-Ala^10 ]LHRH [Compound 2]”, the “Ovulation Inhibition, Corn Oil, ED100” value in the series with rat (corn oil vehicle, ≥ = significant reduction in rats ovulating but ED100 not achieved at the dose, ≥≥ = inactive at the dose tested) is recorded as 1.0 ug/rat. For the same molecule, the “In Vitro Histamine Release ED50” value in the series with rat mast cells [1] came to 4.9 µg/mL.

On to “[N-Ac-D-Nal(2)^1, D-pC1-Phe^2, D-Pal^3, Arg^5, D-Tyr^6, D-Ala^10 ]LHRH”, for which the “mean effective dose for histamine release (known analog)” value with histamine release (from Roeske et al. 1985) was “about 4.0 ug/ml”.

`CC(C)C[C@H](NC(=O)CNC(=O)[C@H](Cc1ccc(O)cc1)NC(=O)[C@H](CO)NC(=O)[C@H](Cc1c[nH]c2ccccc12)NC(=O)[C@H](Cc1cnc[nH]1)NC(=O)[C@@H]1CCC(=O)N1)C(=O)N[C@@H](CCCNC(=N)N)C(=O)N1CCC[C@H]1C(=O)NCC(N)=O` [LHRH, luteinizing hormone-releasing hormone]: the “cell toxicity by release of lactic dehydrogenase” value with rat mast cells [2] is recorded as “no evidence seen of cell toxicity”.
